Data: publication PMC9930359, “Cytotoxicity of the methanol extracts and compounds of Brucea antidysenterica (Simaroubaceae) towards multifactorial drug-resistant human cancer cell lines” (BMC Complementary Medicine and Therapies, 2023)

Key:
MDA-MB-231-BCRP cells = experiment: Resazurin reduction assay (RRA), cytotoxicity; details: Homo sapiens, MDA-MB-231/BCRP, 72 h
Experimental: (§1) The RPMI-1640 medium was used for the culture of CCRF-CEM and CEM/ADR5000 cells whilst DMEM medium was used for carcinoma cells. The culture media were supplemented (complete medium) with 10% fetal bovine serum and 1% penicillin/streptomycin (Invitrogen, Eggenstein, Germany). […] To maintain the resistance phenotype of the resistant carcinoma cell lines such as MDA-MB-231/BCRP and HCT116 p53^−/−, and U87MG.ΔEGFR cells, the complete DMEM medium containing geneticin at 800 ng/ml and 400 µg/ml, respectively were used [41, 42].
(§2) Cells were cultured in a standard condition consisted of a humidified 5% CO2 atmosphere and an incubation temperature of 37 °C. The tested concentration ranges were 0.63—80 µg/mL for the botanicals and 0.78—100 µM for phytochemicals. The incubation time of the treated cells was 72 h, and the fluorescence was measured with Infinite M2000 Pro™ plate reader (Tecan, Crailsheim, Germany). The wavelengths used were 544 nm for the excitation and 590 nm for the emission. […] The degree of resistance (D.R.) was set as the ratio of the IC50 values of samples in the resistant cell line vs that of corresponding sensitive cell line. The selectivity index (S.I.) was the ratio of the IC50 value of AML12 hepatocytes vs. that of HepG2 cells [13, 48].

U87MG cells = experiment: Resazurin reduction assay (RRA), cytotoxicity; type: cell-based; details: Homo sapiens, U-87 MG, 72 h
CCRF-CEM leukemia cells = experiment: Resazurin reduction assay (RRA), cytotoxicity; type: cell-based; details: Homo sapiens, 72 h
Text: (§3) In this work, 9 cancer cell lines with various drug resistance patterns as well as AML12 hepatocytes as normal control cell line were used. […] The AML12 hepatocytes were used for the comparison of the activities of the samples with HepG2 [40]. […] The RPMI-1640 medium was used for the culture of CCRF-CEM and CEM/ADR5000 cells whilst DMEM medium was used for carcinoma cells. The culture media were supplemented (complete medium) with 10% fetal bovine serum and 1% penicillin/streptomycin (Invitrogen, Eggenstein, Germany). […] To maintain the resistance phenotype of the resistant carcinoma cell lines such as MDA-MB-231/BCRP and HCT116 p53^−/−, and U87MG.ΔEGFR cells, the complete DMEM medium containing geneticin at 800 ng/ml and 400 µg/ml, respectively were used [41, 42].
as §2

HCT116 p53+/+ cells = experiment: Resazurin reduction assay (RRA), cytotoxicity; type: cell-based; details: Homo sapiens, HCT-116, 72 h
Text: as §3, §2

[1] = system: A-549 lung carcinoma cells, MCF-7 breast cancer cells, and PC-3 prostate cancer cells; details: three reported cancer cell lines ref Makong et al. [30]; cited from earlier work
HepG2 cells = experiment: Resazurin reduction assay (RRA), cytotoxicity; type: cell-based; details: Homo sapiens, HepG2, 72 h
Text: as §3, §2

AML12 hepatocytes = experiment: Resazurin reduction assay (RRA), cytotoxicity on normal hepatocytes; type: cell-based
Experimental: as §1, §2

HCT116 p53−/− cells = experiment: Resazurin reduction assay (RRA), cytotoxicity; type: cell-based, human; details: Homo sapiens, HCT-116; HCT116 p53−/−, 72 h
Experimental: as §1, §2

CEM/ADR5000 cells = experiment: Resazurin reduction assay (RRA), cytotoxicity; type: cell-based, human
Experimental: as §1, §2

U87MG.ΔEGFR cells = experiment: Resazurin reduction assay (RRA), cytotoxicity; type: cell-based, human; details: Homo sapiens; U87MG.ΔEGFR, 72 h
Experimental: as §1, §2

MDA-MB-231-pcDNA cells = experiment: Resazurin reduction assay (RRA), cytotoxicity; type: cell-based; details: Homo sapiens, 72 h
Text: as §3, §2

melting point: 254 to 256 °C
Structure (SMILES): COc1cc([C@H]2Oc3c(OC)cc4ccc(=O)oc4c3O[C@@H]2CO)cc(OC)c1O [Compound 6, cleomiscosin C]
IC50 (MDA-MB-231-BCRP cells): > 100 µM
IC50 (U87MG cells): > 100 µM
IC50 (CCRF-CEM leukemia cells): 23.2 ± 1.63 µM
IC50 (HCT116 p53+/+ cells): > 100 µM
cytotoxic activity [1]: not active
IC50 (HepG2 cells): 15.5 ± 1.06 µM
IC50 (AML12 hepatocytes; Mus musculus, AML12 normal hepatocytes, 72 h): > 100 µM
Selectivity index (S.I.) (AML12 hepatocytes; ratio of IC50 in AML12 vs IC50 in HepG2 cells): > 6.46
IC50 (HCT116 p53−/− cells): > 100 µM
IC50 (CEM/ADR5000 cells; Homo sapiens, CEM/ADR5000, 72 h): > 100 µM
Degree of resistance (D.R.) (CEM/ADR5000 cells; ratio of IC50 CEM/ADR5000 vs CCRF-CEM): > 4.31
IC50 (U87MG.ΔEGFR cells): > 100 µM
IC50 (MDA-MB-231-pcDNA cells): > 100 µM
